# Measured values from PubChem BioAssay (NCI).
#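 GI50 is the concentration that inhibits growth by half. TGI marks complete inhibition of growth.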
# Legend:
# Assay in all cases: NCI-60 cell line screen, 384-well format
# SK-MEL-5 melanoma = tested on: SK-MEL-5 melanoma
# SF-539 CNS = tested on: SF-539 CNS
# A549 NSCLC = tested on: A549 NSCLC
# SW-620 colon = tested on: SW-620 colon
# PC-3 prostate = tested on: PC-3 prostate
# KM12 colon = tested on: KM12 colon
# RXF 393 renal = tested on: RXF 393 renal
# UACC-62 melanoma = tested on: UACC-62 melanoma
# DU-145 prostate = tested on: DU-145 prostate
# 786-0 renal = tested on: 786-0 renal
# NCI-H322M lung = tested on: NCI-H322M lung
# HCT-15 colon = tested on: HCT-15 colon
# ACHN renal = tested on: ACHN renal
# BT-549 breast = tested on: BT-549 breast
# NCI/ADR-RES ovarian = tested on: NCI/ADR-RES ovarian
# SF-268 CNS = tested on: SF-268 CNS
# SNB-75 CNS = tested on: SNB-75 CNS
# RPMI-8226 leukemia = tested on: RPMI-8226 leukemia
# A498 renal = tested on: A498 renal
# OVCAR-5 ovarian = tested on: OVCAR-5 ovarian
# UO-31 renal = tested on: UO-31 renal
# HS 578T breast = tested on: HS 578T breast
# LOX IMVI melanoma = tested on: LOX IMVI melanoma
# TK-10 renal = tested on: TK-10 renal
# HOP-62 NSCLC = tested on: HOP-62 NSCLC
# NCI-H23 lung = tested on: NCI-H23 lung
# SN12C renal = tested on: SN12C renal
# MDA-MB-435 melanoma = tested on: MDA-MB-435 melanoma
# EKVX NSCLC = tested on: EKVX NSCLC
# SF-295 CNS = tested on: SF-295 CNS
# SK-MEL-28 melanoma = tested on: SK-MEL-28 melanoma
# MDA-MB-468 breast = tested on: MDA-MB-468 breast
# OVCAR-4 ovarian = tested on: OVCAR-4 ovarian
# CAKI-1 renal = tested on: CAKI-1 renal
# HOP-92 NSCLC = tested on: HOP-92 NSCLC
# NCI-H460 NSCLC = tested on: NCI-H460 NSCLC
# M14 melanoma = tested on: M14 melanoma
# MOLT-4 leukemia = tested on: MOLT-4 leukemia
# IGROV1 ovarian = tested on: IGROV1 ovarian
# SK-OV-3 ovarian = tested on: SK-OV-3 ovarian
# HT29 colon = tested on: HT29 colon
# T-47D breast = tested on: T-47D breast
# MDA-MB-231 breast = tested on: MDA-MB-231 breast
# NCI-H226 lung = tested on: NCI-H226 lung
# MCF7 breast = tested on: MCF7 breast
# OVCAR-3 ovarian = tested on: OVCAR-3 ovarian
# K-562 leukemia = tested on: K-562 leukemia
# HCT-116 colon = tested on: HCT-116 colon
# SK-MEL-2 melanoma = tested on: SK-MEL-2 melanoma
# SNB-19 CNS = tested on: SNB-19 CNS
# NCI-H522 lung = tested on: NCI-H522 lung
# MALME-3M melanoma = tested on: MALME-3M melanoma
# U251 glioblastoma = tested on: U251 glioblastoma
# OVCAR-8 ovarian = tested on: OVCAR-8 ovarian
# CCRF-CEM leukemia = tested on: CCRF-CEM leukemia
# COLO 205 colon = tested on: COLO 205 colon
# HL-60(TB) leukemia = tested on: HL-60(TB) leukemia
# HCC-2998 colon = tested on: HCC-2998 colon
# UACC-257 melanoma = tested on: UACC-257 melanoma
smiles,measurement,setting,value
Cc1c(N)nc([C@H](CC(N)=O)NC[C@H](N)C(N)=O)nc1C(=O)N[C@H](C(=O)N[C@H](C)[C@@H](O)[C@H](C)C(=O)N[C@H](C(=O)NCCc1nc(-c2nc(C(=O)NCCC[S+](C)C)cs2)cs1)[C@@H](C)O)C(OC1OC(CO)C(O)C(O)C1OC1OC(CO)C(O)C(OC(N)=O)C1O)c1cnc[nH]1 (some centres not stated),GI50,SK-MEL-5 melanoma,0.211 µM
same,TGI,SK-MEL-5 melanoma,1.17 µM
same,GI50,SF-539 CNS,0.234 µM
same,TGI,SF-539 CNS,4.56 µM
same,GI50,A549 NSCLC,1.65 µM
same,TGI,A549 NSCLC,> 92.1 µM
same,GI50,SW-620 colon,4.95 µM
same,TGI,SW-620 colon,> 100 µM
same,GI50,PC-3 prostate,46.5 µM
same,TGI,PC-3 prostate,> 100 µM
same,GI50,KM12 colon,1.78 µM
same,TGI,KM12 colon,27.8 µM
same,GI50,RXF 393 renal,2.2 µM
same,TGI,RXF 393 renal,10.2 µM
same,GI50,UACC-62 melanoma,1.26 µM
same,TGI,UACC-62 melanoma,20 µM
same,GI50,DU-145 prostate,1.71 µM
same,TGI,DU-145 prostate,> 20.5 µM
same,GI50,786-0 renal,0.945 µM
same,GI50,NCI-H322M lung,26.1 µM
same,TGI,NCI-H322M lung,> 100 µM
same,GI50,HCT-15 colon,0.4 µM
same,TGI,HCT-15 colon,16.9 µM
same,GI50,ACHN renal,0.164 µM
same,TGI,ACHN renal,0.929 µM
same,GI50,BT-549 breast,1.06 µM
same,TGI,BT-549 breast,22.4 µM
same,GI50,NCI/ADR-RES ovarian,0.273 µM
same,TGI,NCI/ADR-RES ovarian,5.9 µM
same,GI50,SF-268 CNS,0.6 µM
same,TGI,SF-268 CNS,8.37 µM
same,GI50,SNB-75 CNS,1.32 µM
same,TGI,SNB-75 CNS,6.43 µM
same,GI50,RPMI-8226 leukemia,7.9 µM
same,TGI,RPMI-8226 leukemia,> 100 µM
same,GI50,A498 renal,1.51 µM
same,TGI,A498 renal,25.9 µM
same,GI50,OVCAR-5 ovarian,6.43 µM
same,TGI,OVCAR-5 ovarian,> 76 µM
same,GI50,UO-31 renal,2.08 µM
same,TGI,UO-31 renal,> 35.3 µM
same,GI50,HS 578T breast,0.266 µM
same,TGI,HS 578T breast,5.4 µM
same,GI50,LOX IMVI melanoma,0.57 µM
same,TGI,LOX IMVI melanoma,12.3 µM
same,GI50,TK-10 renal,8.01 µM
same,TGI,TK-10 renal,> 42.1 µM
same,GI50,HOP-62 NSCLC,0.169 µM
same,TGI,HOP-62 NSCLC,1.19 µM
same,GI50,NCI-H23 lung,1.21 µM
same,TGI,NCI-H23 lung,11.9 µM
same,GI50,SN12C renal,1.62 µM
same,TGI,SN12C renal,34.9 µM
same,GI50,MDA-MB-435 melanoma,71.3 µM
same,TGI,MDA-MB-435 melanoma,> 100 µM
same,GI50,EKVX NSCLC,> 48.2 µM
same,TGI,EKVX NSCLC,> 100 µM
same,GI50,SF-295 CNS,0.128 µM
same,TGI,SF-295 CNS,0.824 µM
same,GI50,SK-MEL-28 melanoma,43.7 µM
same,TGI,SK-MEL-28 melanoma,> 100 µM
same,GI50,MDA-MB-468 breast,0.97 µM
same,TGI,MDA-MB-468 breast,4.28 µM
same,GI50,OVCAR-4 ovarian,13 µM
same,TGI,OVCAR-4 ovarian,> 54.7 µM
same,GI50,CAKI-1 renal,1.43 µM
same,TGI,CAKI-1 renal,> 44.8 µM
same,GI50,HOP-92 NSCLC,0.648 µM
same,TGI,HOP-92 NSCLC,23.6 µM
same,GI50,NCI-H460 NSCLC,0.331 µM
same,TGI,NCI-H460 NSCLC,14.6 µM
same,GI50,M14 melanoma,1.42 µM
same,TGI,M14 melanoma,23.2 µM
same,GI50,MOLT-4 leukemia,0.439 µM
same,TGI,MOLT-4 leukemia,1.53 µM
same,GI50,IGROV1 ovarian,3.19 µM
same,TGI,IGROV1 ovarian,43.6 µM
same,GI50,SK-OV-3 ovarian,4.84 µM
same,TGI,SK-OV-3 ovarian,> 64.7 µM
same,GI50,HT29 colon,16.9 µM
same,TGI,HT29 colon,> 100 µM
same,GI50,T-47D breast,9.71 µM
same,TGI,T-47D breast,> 82.5 µM
same,GI50,MDA-MB-231 breast,31.2 µM
same,TGI,MDA-MB-231 breast,> 100 µM
same,GI50,NCI-H226 lung,0.778 µM
same,TGI,NCI-H226 lung,9.52 µM
same,GI50,MCF7 breast,10 µM
same,TGI,MCF7 breast,> 100 µM
same,GI50,OVCAR-3 ovarian,3.67 µM
same,TGI,OVCAR-3 ovarian,13.7 µM
same,GI50,K-562 leukemia,8.46 µM
same,TGI,K-562 leukemia,> 79 µM
same,GI50,HCT-116 colon,0.071 µM
same,TGI,HCT-116 colon,19 µM
same,GI50,SK-MEL-2 melanoma,11.1 µM
same,TGI,SK-MEL-2 melanoma,25.5 µM
same,GI50,SNB-19 CNS,6.76 µM
same,TGI,SNB-19 CNS,> 52 µM
same,GI50,NCI-H522 lung,2.21 µM
same,TGI,NCI-H522 lung,16.4 µM
same,GI50,MALME-3M melanoma,18.2 µM
same,TGI,MALME-3M melanoma,> 100 µM
same,GI50,U251 glioblastoma,0.522 µM
same,TGI,U251 glioblastoma,11.2 µM
same,GI50,OVCAR-8 ovarian,0.41 µM
same,TGI,OVCAR-8 ovarian,21 µM
same,GI50,CCRF-CEM leukemia,2.08 µM
same,TGI,CCRF-CEM leukemia,6.72 µM
same,GI50,COLO 205 colon,2.96 µM
same,TGI,COLO 205 colon,7.57 µM
same,GI50,HL-60(TB) leukemia,2.66 µM
same,TGI,HL-60(TB) leukemia,7.29 µM
same,GI50,HCC-2998 colon,6.35 µM
same,TGI,HCC-2998 colon,53.3 µM
same,GI50,UACC-257 melanoma,> 68 µM
same,TGI,UACC-257 melanoma,> 100 µM
